Earlier results as cited in patent US12605354B2, “Azelaic acid esters in the treatment or prevention of dyslipidemia and associated conditions” (NEW FRONTIER LABS, LLC, priority 2020, dated 2026).
Read-outs that look alike come from different tables or passages of the source.

Key:
[1] = 15-year study [49]; cited from earlier work
[2] = cited from earlier work; for Hypoglycemia: reference 51
[3] = system: 16 subjects with Type II diabetes; conditions: cited from earlier work
statin-naïve individuals = conditions: 1 year (T2D), reference 52, cited from earlier work; for LDL/HDL, decrease: statin-naïve individuals
[4] = system: 4750 prediabetic subjects; conditions: cited from earlier work
[5] = 28-day study in 16 subjects with Type II diabetes [47]
[6] = 8 weeks (T2D risk), reference 48
[7] = meta-analysis, trials of at least 8 weeks, compared to placebo or no treatment [48]

CN(C)C(=N)N=C(N)N [Metformin, metformin]
reduction of the incidence of diabetes compared to placebo [1]: 17% | patients who cannot tolerate metformin at all [2, 53]: 5% | users with severe gastrointestinal side effects [2, 53]: 1 of 4 | Hypoglycemia ([2]; multiple studies): infrequent event | Hypoglycemia ([2]; multiple studies, listed as metformin): Neither metformin nor DEA administration as presented herein induced hypoglycemia | Side effects ([2]; multiple studies, reference 53): severe gastrointestinal effects | Cholesterol/HDL, decrease ([3]; 4 weeks (T2D), reference 47): 9.2% decrease | fasting glucose [3, 5]: reduced fasting glucose | insulin levels [3, 5]: no effect on insulin levels | LDL/HDL, decrease (statin-naïve individuals): 11.7% decrease | LDL/HDL, decrease (statin-naïve individuals; listed as metformin): 11.7% | HDL, increase (statin-naïve individuals): 5% increase | LDL, decrease (statin-naïve individuals): 5.6% decrease | Fasting insulin, decrease [4, 6]: 14.4% decrease | Fasting plasma glucose, decrease [4, 6]: 4.5% decrease | change of LDL [4, 7]: −5.6% | change of fasting glucose [4, 7]: −4.5% | change of fasting insulin [4, 7]: −14.4% | increase of HDL [4, 7]: 5.0%
